Reference: PubChem BioAssay AID248 (DTP/NCI, 2004)
“And” between values parts separate entries of the source, which are not always exact repeats. Equal values may be shown once. Inconclusive results and toxic doses are left out. Rule as the data show it: active = T/C of 150% or more; inactive = T/C below 125%.

Tested on: L1210 leukemia ip in BDF1 mice, survival T/C
Assay: NCI In Vivo Anticancer Drug Screen. Data for tumor model L1210 Leukemia (intraperitoneal) in B6D2F1 (BDF1) mice
Conditions: endpoint: mean survival time, higher = longer survival
Summary of the method: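 Read-out is survival time, reported as the treated-group measurement over the vehicle-control measurement.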

[1] = dose: 50.0 mg/kg/injection, schedule: Q01DX009 (ip), vehicle: saline with Tween-80
[2] = dose: 100.0 mg/kg/injection, schedule: Q01DX009 (ip), vehicle: saline with Tween-80
[3] = dose: 200.0 mg/kg/injection, schedule: Q01DX009 (ip), vehicle: saline with Tween-80
[4] = dose: 100.0 mg/kg/injection, schedule: Q01DX009 (ip), vehicle: saline
[5] = dose: 100.0 mg/kg/injection, schedule: Q04DX003 (ip), vehicle: saline
[6] = dose: 200.0 mg/kg/injection, schedule: Q01DX009 (ip), vehicle: saline
[7] = dose: 200.0 mg/kg/injection, schedule: Q04DX003 (ip), vehicle: saline
[8] = dose: 400.0 mg/kg/injection, schedule: Q01DX009 (ip), vehicle: saline
[9] = dose: 400.0 mg/kg/injection, schedule: Q04DX003 (ip), vehicle: saline
[10] = dose: 100.0 mg/kg/injection, schedule: Q01DX001 (ip), vehicle: carboxymethylcellulose (CMC)
[11] = dose: 200.0 mg/kg/injection, schedule: Q01DX001 (ip), vehicle: carboxymethylcellulose (CMC)
[12] = dose: 400.0 mg/kg/injection, schedule: Q01DX001 (ip), vehicle: carboxymethylcellulose (CMC)
[13] = dose: 400.0 mg/kg/injection, schedule: Q01DX009 (ip), vehicle: saline with Tween-80
[14] = dose: 12.5 mg/kg/injection, schedule: Q01DX009 (ip), vehicle: saline with Tween-80
[15] = dose: 100.0 mg/kg/injection, schedule: Q04DX003 (ip), vehicle: saline with Tween-80
[16] = dose: 200.0 mg/kg/injection, schedule: Q04DX003 (ip), vehicle: saline with Tween-80
[17] = dose: 400.0 mg/kg/injection, schedule: Q04DX003 (ip), vehicle: saline with Tween-80
[18] = dose: 25.0 mg/kg/injection, schedule: Q01DX009 (ip), vehicle: saline with Tween-80
[19] = dose: 50.0 mg/kg/injection, schedule: Q01DX001 (ip), vehicle: saline
[20] = dose: 100.0 mg/kg/injection, schedule: Q01DX001 (ip), vehicle: saline
[21] = dose: 200.0 mg/kg/injection, schedule: Q01DX001 (ip), vehicle: saline
[22] = dose: 100.0 mg/kg/injection, schedule: Q04DX003 (ip), vehicle: Klucel (hydroxypropylcellulose) (HPC)
[23] = dose: 200.0 mg/kg/injection, schedule: Q04DX003 (ip), vehicle: Klucel (hydroxypropylcellulose) (HPC)
[24] = dose: 400.0 mg/kg/injection, schedule: Q04DX003 (ip), vehicle: Klucel (hydroxypropylcellulose) (HPC)

Measured: T/C

O=C1CCSC1
inactive: [1] 87 % of control | [2] 98 % of control | [3] 98 % of control

CC(=O)NCCN(C)C
inactive: [4] 97 % of control | [5] 103 % of control | [6] 96 % of control | [7] 101 % of control | [8] 97 % of control | [9] 97 % of control

Nc1nc2ncc(CNc3ccc(CC(=O)NC(CCC(=O)O)C(=O)O)cc3)nc2c(=O)[nH]1 (stereo not drawn)
inactive: dose: 75.0 mg/kg/injection, schedule: Q01DX001 (ip), vehicle: saline 103 % of control | dose: 150.0 mg/kg/injection, schedule: Q01DX001 (ip), vehicle: saline 103 % of control

CCOCC(=O)Cc1ccccc1
inactive: [1] 95 % of control | [2] 100 % of control | [3] 92 % of control

O=C(O)CCSC(=S)Nc1ccccc1O
inactive: [10] 103 % of control | [11] 93 % of control | [12] 98 % of control

CC(=O)Nc1c(Cl)c(Cl)c2c(c1Cl)C(=O)c1cc(Cl)ccc1-2
inactive: [10] 92 % of control | dose: 100.0 mg/kg/injection, schedule: Q01DX Z (ip), vehicle: carboxymethylcellulose (CMC) 102 % of control | [11] 90 % of control | dose: 200.0 mg/kg/injection, schedule: Q01DX Z (ip), vehicle: carboxymethylcellulose (CMC) 98 % of control | [12] 95 % of control | dose: 400.0 mg/kg/injection, schedule: Q01DX Z (ip), vehicle: carboxymethylcellulose (CMC) 98 % of control | dose: 800.0 mg/kg/injection, schedule: Q01DX Z (ip), vehicle: carboxymethylcellulose (CMC) 102 % of control

CC(=O)OC1C=CS(=O)(=O)C1 (stereo not drawn)
inactive: [2] 94 % of control | [3] 103 % of control | [13] 96 % of control

CCc1cc2c(cc1C(=O)CBr)C(C)(C)CCC2(C)C
inactive: dose: 6.25 mg/kg/injection, schedule: Q01DX009 (ip), vehicle: saline with Tween-80 103 % of control | [14] 109 % of control | dose: 12.5 mg/kg/injection, schedule: Q04DX003 (ip), vehicle: saline 100 % of control | dose: 25.0 mg/kg/injection, schedule: Q04DX003 (ip), vehicle: saline 102 % of control

CC(S)CNCCSC(=O)c1ccccc1 (stereo not drawn)
inactive: dose: 100.0 mg/kg/injection, schedule: Q04DX003 (ip), vehicle: acetone 91 % of control | dose: 200.0 mg/kg/injection, schedule: Q04DX003 (ip), vehicle: acetone 102 % of control | dose: 400.0 mg/kg/injection, schedule: Q04DX003 (ip), vehicle: acetone 97 % of control

C=CC1CC=CCC1 (stereo not drawn)
inactive: [15] 98 % of control | [16] 97 % of control | [17] 102 % of control

CCCNC(=O)c1cccc2c1-c1ccccc1C2=O
inactive: dose: 100.0 mg/kg/injection, schedule: Q01DX001 (ip), vehicle: other 93 % of control | dose: 200.0 mg/kg/injection, schedule: Q01DX001 (ip), vehicle: other 93 % of control | dose: 400.0 mg/kg/injection, schedule: Q01DX001 (ip), vehicle: other 87 % of control

N#CC(C#N)=c1ccc(=C(C#N)C#N)cc1
inactive: [18] 91 % of control | [19] 94 % of control | [1] 89 % of control | [20] 103 % of control | [2] 91 % of control | [21] 103 % of control

CCC(CO)Nc1nc2c(Cl)cc(Cl)cc2c2ccccc12 (stereo not drawn)
inactive: [22] 100 % of control | [23] 100 % of control | [24] 90 % of control

COc1ccc(C(=O)CC(c2ccc3c(c2)OCO3)c2c(O)c3ccccc3oc2=O)cc1OC (stereo not drawn)
inactive: [1] 97 % of control | [2] 96 % of control | [15] 94 % of control | [3] 92 % of control | [16] 102 % of control | [13] 87 % of control | [17] 89 % of control

O=C(c1ccccc1)c1cccc2ccccc12
inactive: dose: 50.0 mg/kg/injection, schedule: Q04DX002 (ip), vehicle: Klucel (hydroxypropylcellulose) (HPC) 109 % of control | dose: 100.0 mg/kg/injection, schedule: Q04DX002 (ip), vehicle: Klucel (hydroxypropylcellulose) (HPC) 105 % of control | dose: 200.0 mg/kg/injection, schedule: Q04DX002 (ip), vehicle: Klucel (hydroxypropylcellulose) (HPC) 105 % of control | dose: 400.0 mg/kg/injection, schedule: Q04DX002 (ip), vehicle: Klucel (hydroxypropylcellulose) (HPC) 109 % of control

COP1(=O)OCC2OC(n3cnc4c(N)ncnc43)C(O)C2O1 (stereo not drawn)
inactive: dose: 100.0 mg/kg/injection, schedule: Q01DX005 (ip), vehicle: saline 95 % of control and 103 % of control | [4] 89 % of control | dose: 200.0 mg/kg/injection, schedule: Q01DX005 (ip), vehicle: saline 89 % of control and 92 % of control | [6] 92 % of control | dose: 400.0 mg/kg/injection, schedule: Q01DX005 (ip), vehicle: saline 92 % of control | [8] 98 % of control | dose: 600.0 mg/kg/injection, schedule: Q01DX005 (ip), vehicle: saline 101 % of control

CCCCCCCCCCCCCSc1ccc(Br)cc1
inactive: [15] 96 % of control | [16] 96 % of control | [17] 96 % of control

O=C(Nc1ccc(F)cc1)c1ccc(Cl)cc1Cl
inactive: [20] 93 % of control | [5] 97 % of control | [21] 95 % of control | [7] 107 % of control | dose: 400.0 mg/kg/injection, schedule: Q01DX001 (ip), vehicle: saline 88 % of control | [9] 100 % of control

COC1OC(C(O)CO)C(O)C(O)C1O (stereo not drawn)
inactive: [2] 110 % of control | [3] 100 % of control | [13] 104 % of control

CCCOC(C)CC(c1ccccc1)(c1ccccc1)c1ccccc1 (stereo not drawn)
inactive: [14] 98 % of control | [18] 95 % of control | [1] 91 % of control | [3] 90 % of control

Cc1ccc(NC(=O)Oc2cc(C)c(Cl)cc2C(C)C)cc1
inactive: dose: 100.0 mg/kg/injection, schedule: Q01DX009 (ip), vehicle: Klucel (hydroxypropylcellulose) (HPC) 98 % of control | dose: 200.0 mg/kg/injection, schedule: Q01DX009 (ip), vehicle: Klucel (hydroxypropylcellulose) (HPC) 96 % of control | dose: 400.0 mg/kg/injection, schedule: Q01DX009 (ip), vehicle: Klucel (hydroxypropylcellulose) (HPC) 100 % of control

c1ccc2c(c1)Cc1nc3ccccc3nc1-2
inactive: dose: 25.0 mg/kg/injection, schedule: Q01DX009 (ip), vehicle: water 93 % of control | dose: 50.0 mg/kg/injection, schedule: Q01DX009 (ip), vehicle: water 91 % of control | dose: 100.0 mg/kg/injection, schedule: Q01DX009 (ip), vehicle: water 101 % of control | dose: 200.0 mg/kg/injection, schedule: Q01DX009 (ip), vehicle: water 93 % of control | dose: 400.0 mg/kg/injection, schedule: Q01DX009 (ip), vehicle: water 96 % of control

CCOC(=O)P(=O)(OCC)OCC
inactive: [10] 101 % of control | [11] 95 % of control | [12] 104 % of control

CS(=O)(=O)OCCN(CCOS(C)(=O)=O)c1cccc(F)c1
inactive: dose: 5.0 mg/kg/injection, schedule: Q01DX001 (ip), vehicle: saline 98 % of control and 113 % of control | dose: 9.0 mg/kg/injection, schedule: Q01DX001 (ip), vehicle: saline 98 % of control | dose: 10.0 mg/kg/injection, schedule: Q01DX001 (ip), vehicle: saline 100 % of control | dose: 13.0 mg/kg/injection, schedule: Q01DX001 (ip), vehicle: saline 96 % of control | dose: 30.0 mg/kg/injection, schedule: Q01DX001 (ip), vehicle: saline 97 % of control | dose: 40.0 mg/kg/injection, schedule: Q01DX001 (ip), vehicle: saline 100 % of control | [19] 103 % of control | dose: 80.0 mg/kg/injection, schedule: Q01DX001 (ip), vehicle: saline 98 % of control and 87 % of control | [20] 105 % of control | [21] 121 % of control

CC1=C(C)C2(Cl)C(Cl)=C(Cl)C1(Cl)C2(Cl)Cl
inactive: dose: 50.0 mg/kg/injection, schedule: Q04DX003 (ip), vehicle: Klucel (hydroxypropylcellulose) (HPC) 96 % of control | [22] 91 % of control | [23] 92 % of control | [24] 96 % of control
